These results are taken from PMC11831560, “Development of the Pyrido[2,3-d]pyrimidin-7(8H)-one Scaffold toward Potent and Selective NUAK1 Inhibitors” (ACS Medicinal Chemistry Letters, 2025).

Molecules are shown by their SMILES.

The first series deals with T1, NUAK1 (Homo sapiens, UniProt O60285).
T1 sequence (O60285 1-661): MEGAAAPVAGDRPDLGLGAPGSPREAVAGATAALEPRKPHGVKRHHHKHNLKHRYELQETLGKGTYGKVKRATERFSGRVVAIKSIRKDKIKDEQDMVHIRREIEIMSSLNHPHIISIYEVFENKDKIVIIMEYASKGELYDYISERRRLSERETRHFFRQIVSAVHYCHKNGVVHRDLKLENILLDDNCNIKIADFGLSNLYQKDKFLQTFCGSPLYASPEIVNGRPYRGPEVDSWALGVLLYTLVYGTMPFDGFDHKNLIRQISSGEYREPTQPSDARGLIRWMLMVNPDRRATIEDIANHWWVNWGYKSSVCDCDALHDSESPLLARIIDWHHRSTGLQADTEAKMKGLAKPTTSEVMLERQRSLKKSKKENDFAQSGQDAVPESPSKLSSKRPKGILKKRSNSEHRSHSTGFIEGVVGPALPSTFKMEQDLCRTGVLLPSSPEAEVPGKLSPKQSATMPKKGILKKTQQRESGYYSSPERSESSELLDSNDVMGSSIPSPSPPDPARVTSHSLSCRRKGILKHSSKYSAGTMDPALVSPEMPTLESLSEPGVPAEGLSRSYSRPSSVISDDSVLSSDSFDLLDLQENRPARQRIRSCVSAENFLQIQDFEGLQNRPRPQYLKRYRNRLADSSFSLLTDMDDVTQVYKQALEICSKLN
Briefly: NanoBRET target engagement assay, HEK293 cells. The note with it: cell-based NanoBRET target engagement assay. As to the method:
NanoBRET® target engagement assay
The binding of compounds to NUAK1 in intact cells was assessed using an NanoBRET® TE Intracellular Kinase Assay (Promega N2501). HEK293 cells transiently transfected with NanoLuc®- NUAK1 Fusion Vector (Promega NV1831) were incubated with 10 nL K5 tracer (provided in the kit, Promega N2501) and 40 nL of the test compounds in 100% DMSO in a white low volume non-binding 384 assay plate (Grenier Bio One 784904) for 90 min at 37 °C. After incubation, followed by cooling for 15 min at room temperature, 4 µL of the Intracellular TE Nano-Glo ® Substrate/Inhibitor (Promega N2160) was added to each well. The plate was read using a Pherastar FSX plate reader (BMG Labtech).
Minimum number of 2 technical replicates per compound.
(§1) Activity pIC50 values and standard error of the mean (SEM) were estimated using a 4-parameter fit (Dotmatics). The SEM for all reported data was 0.2 or lower. See Experimental Procedures for minimum number of replicates per compound. Each experiment included a Standard compound whose pIC50 value was compared to a quality control chart. If the Standard pIC50 value fell outside the range of pIC50 +/-3 standard deviation, then the experiment was invalidated. […]
(In general: In BRET a luciferase serves as donor, and the signal depends on an acceptor being close.)
Turning to `Cc1cc(=O)n(C(C)C)c2nc(Nc3ccc(N4CC5CC(C4)N5C)cc3)ncc12` [Compound 20], the “NUAK1 cell TE pIC50” value is 6.0.
For `CN1C2CC1CN(c1ccc(Nc3ncc4ccn(CC5CCOCC5)c4n3)cc1)C2` [Compound 24], the “NUAK1 cell TE pIC50” value stood at 7.0.
On the same count and under the same terms, in the case of `CC(C)N1CCN(c2ccc(Nc3ncc4ccn(CC5CCOC(C)(C)C5)c4n3)cc2)CC1` (stereo not shown) [Compound 26] it was 6.8; in that of `CC(C)N1CCN(c2ccc(Nc3ncc4ccn(CC5CCCO5)c4n3)cc2)CC1` (stereo not shown) [Compound 27], 6.9; in that of `CN1C2CC1CN(c1ccc(Nc3ncc4ccn(CC5CCCO5)c4n3)cc1)C2` (stereo not shown) [Compound 28], 6.7.

The target in a further series is T2, MARK1 (Homo sapiens, UniProt Q9P0L2).
T2 construct: purchased MRC PPU
T2 sequence (Q9P0L2 whole entry): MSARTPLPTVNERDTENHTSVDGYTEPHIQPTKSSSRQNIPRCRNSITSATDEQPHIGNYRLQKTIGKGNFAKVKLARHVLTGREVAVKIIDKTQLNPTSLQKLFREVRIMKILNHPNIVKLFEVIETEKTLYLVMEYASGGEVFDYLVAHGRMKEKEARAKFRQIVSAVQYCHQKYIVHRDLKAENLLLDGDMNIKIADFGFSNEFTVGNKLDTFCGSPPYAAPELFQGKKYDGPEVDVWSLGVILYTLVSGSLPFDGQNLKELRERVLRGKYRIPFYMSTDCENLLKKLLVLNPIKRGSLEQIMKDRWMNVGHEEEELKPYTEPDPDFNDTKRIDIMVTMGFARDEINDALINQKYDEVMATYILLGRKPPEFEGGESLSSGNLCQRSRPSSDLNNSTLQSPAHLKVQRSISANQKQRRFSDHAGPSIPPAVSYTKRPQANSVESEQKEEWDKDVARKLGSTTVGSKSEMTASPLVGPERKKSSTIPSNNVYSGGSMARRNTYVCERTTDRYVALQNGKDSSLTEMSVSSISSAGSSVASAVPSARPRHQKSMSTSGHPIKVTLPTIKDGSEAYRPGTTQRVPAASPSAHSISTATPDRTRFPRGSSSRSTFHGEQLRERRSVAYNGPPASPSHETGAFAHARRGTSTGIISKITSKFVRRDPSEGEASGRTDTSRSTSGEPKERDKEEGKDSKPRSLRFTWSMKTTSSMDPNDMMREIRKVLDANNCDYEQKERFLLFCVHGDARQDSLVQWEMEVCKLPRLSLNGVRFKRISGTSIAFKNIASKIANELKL
Briefly: ADP-Glo biochemical assay MARK1. The note with it: ADP-Glo assay. As to the method:
Biological experimental procedures
ADP-Glo biochemical assays
Protein kinase activity in the presence of inhibitor compounds was determined by ADP-Glo assay (Promega), as previously described.1,2 Compounds were serialised using a Labcyte Echo 520 and transferred to 384 well plates (Greiner 784201) followed by the addition 5 µL of substrate containing peptide and ATP at Km in buffer (see Table S6). 5 µL of purified protein was added and the plate was incubated for 60 minutes at room temperature (ng/well; see Table S6). 3 µL of assay mixture was transferred using an Integra Viaflo384 into a white low volume plate (Greiner 781904) prior to the addition of 3 µL of ADP-Glo Reagent™ for a further 40 minute incubation. After incubation with 6 µL of Kinase Detection Reagent for 30 minutes, plate luminescence was read (Pherastar FSX, BMG […]
30 mM HEPES pH7.4, 3 mM MgCl2, 3 mM MnCl2, 1.2 mM DTT, 0.01% CHAPS
Table S6: Conditions for protein kinase ADP-Glo assays
ATP AT Peptide Peptide Enzyme Enzyme Assay Buffe Min.
Protein conc. P Peptide name conc. supplier amount supplier vol. r na […]
NUAK1 µM µM Sakamototide 50 µM Merck 6.7 ng PPU 10 µl A 6
A µM µM Sakamototide 100 µM Merck 1 ng PPU 10 µl B 2 […]
aMin. n: Minimum number of technical replicates per compound
(In general: In ADP-Glo the light output rises with the ADP produced.)
For `CN1CCN(c2ccc(Nc3ncc4cc(C#N)c(=O)n(C5CCCC5)c4n3)cc2)CC1` [Compound 3, Narazaciclib, reference compound], the “MARK1 pIC50” value came out at 5.2.
On the same count and under the same terms, as for `CN1C2CC1CN(c1ccc(Nc3ncc4ccn(CC5CCOCC5)c4n3)cc1)C2` [Compound 24], the figure is 5.1.

The same series, now with this note: ADP-Glo assay; read-out: MARK1 pIC50 (converted).
Turning to `CN1CCN(c2ccc(Nc3ncc4cc(C#N)c(=O)n(C5CCCC5)c4n3)cc2)CC1` [Compound 3, Narazaciclib, reference compound], the IC50 was 5.89 µM.
Still for that read-out and setting: in the case of `CN1C2CC1CN(c1ccc(Nc3ncc4ccn(CC5CCOCC5)c4n3)cc1)C2` [Compound 24] it was 8.91 µM; in that of `CC(C)N1CCN(c2ccc(Nc3ncc4ccn(CC5CCOC(C)(C)C5)c4n3)cc2)CC1` (stereo not shown) [Compound 26], 10.7 µM; in that of `CC(C)N1CCN(c2ccc(Nc3ncc4ccn(CC5CCCO5)c4n3)cc2)CC1` (stereo not shown) [Compound 27], 1.23 µM.
Still for that read-out and setting: in the case of `CN1C2CC1CN(c1ccc(Nc3ncc4ccn(CC5CCCO5)c4n3)cc1)C2` (stereo not shown) [Compound 28] it was 4.27 µM.

The same series, now with this note: MARK1 IC50/NUAK1 IC50.
Consider `CN1CCN(c2ccc(Nc3ncc4cc(C#N)c(=O)n(C5CCCC5)c4n3)cc2)CC1` [Compound 3, Narazaciclib, reference compound], for which the “MARK1 Fold selectivity IC50/NUAK1 IC50” value stood at 224 fold.
Take `CN1C2CC1CN(c1ccc(Nc3ncc4ccn(CC5CCOCC5)c4n3)cc1)C2` [Compound 24]: the “MARK1 Fold selectivity IC50/NUAK1 IC50” value turned out to be 2818 fold.
In the case of `CC(C)N1CCN(c2ccc(Nc3ncc4ccn(CC5CCOC(C)(C)C5)c4n3)cc2)CC1` (stereo not shown) [Compound 26], the “MARK1 Fold selectivity IC50/NUAK1 IC50” value turned out to be 3890 fold.
Consider `CC(C)N1CCN(c2ccc(Nc3ncc4ccn(CC5CCCO5)c4n3)cc2)CC1` (stereo not shown) [Compound 27], for which the “MARK1 Fold selectivity IC50/NUAK1 IC50” value was 363 fold.
On the same count and under the same terms, as for `CN1C2CC1CN(c1ccc(Nc3ncc4ccn(CC5CCCO5)c4n3)cc1)C2` (stereo not shown) [Compound 28], the figure is 776 fold.

The target of another series is T3, CDK6/Cyclin D1 (Homo sapiens, UniProt Q00534).
T3 construct: purchased Thermo Fisher Scientific
T3 sequence (Q00534 whole entry): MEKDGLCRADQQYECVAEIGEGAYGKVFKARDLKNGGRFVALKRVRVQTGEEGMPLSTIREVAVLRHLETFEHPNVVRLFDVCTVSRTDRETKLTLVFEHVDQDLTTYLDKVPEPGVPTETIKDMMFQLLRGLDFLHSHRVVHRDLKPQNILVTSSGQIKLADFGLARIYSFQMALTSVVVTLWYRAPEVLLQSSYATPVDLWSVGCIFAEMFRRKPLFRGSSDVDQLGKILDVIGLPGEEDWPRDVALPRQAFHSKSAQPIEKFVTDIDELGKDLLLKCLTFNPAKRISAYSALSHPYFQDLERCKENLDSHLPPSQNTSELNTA
T3 sequence (P24385 whole entry partner): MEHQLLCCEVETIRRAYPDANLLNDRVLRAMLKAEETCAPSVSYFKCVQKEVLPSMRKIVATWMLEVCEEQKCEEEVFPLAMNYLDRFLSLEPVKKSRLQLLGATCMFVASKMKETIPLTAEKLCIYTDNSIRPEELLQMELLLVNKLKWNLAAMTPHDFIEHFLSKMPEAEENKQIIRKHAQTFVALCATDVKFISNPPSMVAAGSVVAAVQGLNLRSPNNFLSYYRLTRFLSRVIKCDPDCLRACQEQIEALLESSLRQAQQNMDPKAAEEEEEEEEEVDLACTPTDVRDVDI
Briefly: Adapta screening assay (Thermo Fisher). To be noted: single point at 1 μM; read-out: CDK6 % Inh. The class given is biochemical.
Description: as §1
CDK6/cyclin D1: Adapta™ screening assay was performed by Thermo Fisher Scientific. The 2X CDK6/cyclin D1 / Rb Substrate mixture is prepared in 50 mM HEPES pH 7.5, 0.01% BRIJ-35, 10 mM MnCl2, 1 mM EGTA, 2 mM DTT, 0.02% NaN3. The final 10 µL Kinase Reaction consists of 1.75 - 7 ng CDK6/cyclin D1 and 1 µM Rb Substrate in 32.5 mM HEPES pH 7.5, 0.005% BRIJ-35, 5 mM MnCl2, […]
All single point assay determinations carried out in duplicate. […]
Turning to `Cc1cc(=O)n(C(C)C)c2nc(Nc3ccc(N4CC5CC(C4)N5C)cc3)ncc12` [Compound 20], the inhibition at 1 µM worked out at 39%.
As for `CN1C2CC1CN(c1ccc(Nc3ncc4ccn(CC5CCOCC5)c4n3)cc1)C2` [Compound 24], the inhibition at 1 µM came out at 11%.

System in another series: not listed separately
The series is described as follows: Microsomal stability, mouse. The format is in vitro ADME. To be noted: mouse liver microsomes; read-out: MLM t1/2. As to the method:
All single point assay determinations carried out in duplicate.
ADMET and PK experimental methods
Microsomal stability: analysis was performed by Cyprotex Discovery. […]
Turning to `CN1CCN(c2ccc(Nc3ncc4cc(C#N)c(=O)n(C5CCCC5)c4n3)cc2)CC1` [Compound 3, Narazaciclib, reference compound], the half-life at 1 µM amounted to 8 min and the half-life at 0.75 h, 1 µM came to 8.4 min.
Consider `Cc1cc(=O)n(C(C)C)c2nc(Nc3ccc(N4CC5CC(C4)N5C)cc3)ncc12` [Compound 20], for which the half-life at 0.75 h, 1 µM came out at 79.9 min.
On the same count and under the same terms, in the case of `CN1C2CC1CN(c1ccc(Nc3ncc4ccn(CC5CCOCC5)c4n3)cc1)C2` [Compound 24] it was 21.4 min.
Regarding `CC(C)N1CCN(c2ccc(Nc3ncc4ccn(CC5CCOC(C)(C)C5)c4n3)cc2)CC1` (stereo not shown) [Compound 26], the half-life at 1 µM stood at 14.8 min.
The same measure, in the same setting: as for `CC(C)N1CCN(c2ccc(Nc3ncc4ccn(CC5CCCO5)c4n3)cc2)CC1` (stereo not shown) [Compound 27], the figure is 8.4 min; as for `CN1C2CC1CN(c1ccc(Nc3ncc4ccn(CC5CCCO5)c4n3)cc1)C2` (stereo not shown) [Compound 28], 17 min.

For another series, the target named is CDK2-Cyclin A (Homo sapiens, UniProt P24941). Briefly: Z′-LYTE screening assay (Thermo Fisher). The class given is biochemical. Set-up: purchased Thermo Fisher Scientific. The note with it: single point at 1 μM; read-out: CDK2 % Inh. From the text:
Activity pIC50 values and standard error of the mean (SEM) were estimated using a 4-parameter fit (Dotmatics). The SEM for all reported data was 0.2 or lower. See Experimental Procedures for minimum number of replicates per compound. Each experiment included a Standard compound whose pIC50 value was compared to a quality control chart. If the Standard pIC50 value fell outside the range of pIC50 +/-3 standard deviation, then the experiment was invalidated.
CDK2/cyclin A: Z′-LYTE™ screening assay performed by Thermo Fisher Scientific: The 2X CDK2/cyclin A / Ser/Thr 12 mixture is prepared in 50 mM HEPES pH 7.5, 0.01% BRIJ-35, 10 mM MgCl2, 1 mM EGTA. The final 10 µL Kinase Reaction consists of 1.22 - 10.3 ng CDK2/cyclin A and 2 µM Ser/Thr 12 in 50 mM HEPES pH 7.5, 0.01% BRIJ-35, 10 mM MgCl2, 1 mM EGTA. After the 1 hour Kinase Reaction incubation, 5 µL of a 1:4096 dilution of Development Reagent A is added. […]
As to `Cc1cc(=O)n(C(C)C)c2nc(Nc3ccc(N4CC5CC(C4)N5C)cc3)ncc12` [Compound 20], the inhibition at 1 µM is 17%.
As for `CN1C2CC1CN(c1ccc(Nc3ncc4ccn(CC5CCOCC5)c4n3)cc1)C2` [Compound 24], the inhibition at 1 µM came out at 29%.
